Measurements from patent US6743576B1, “Database system for predictive cellular bioinformatics” (Cytokinetics, Inc., priority 1999, dated 2004).

What was measured:
Type in all cases: cell-based
HeLa cells [1] = experiment: Automated Hoechst image analysis of HeLa cells treated with 6 known compounds; conditions: 10 ug/mL, 24 hours, 10x objective, FIG. 11
Description: In a third experiment, the purpose was to determine whether the automated analysis methods developed in the first experiment can detect differences in Hoechst morphology in the presence of 6 known compounds at one concentration and exposure time in one cell line. In this experiment, HeLa cells were separately treated with 6 compounds with known mechanism of action. The quantitative methods described in the first experiment were applied to the Hoechst images.
Approximately 5,000 HeLa cells per well were plated in a Costar black-walled 96 well tissue culture treated plate and left to recover in the incubator for 24 hours. After this time, 10 ug/mL of cytochalasin D (CD), Taxol, hydroxyurea, vinblastine, nocodazole, and staurosporine was added to different wells at a 1:100 addition in DMSO. The cells were incubated in the presence of drug for 24 more hours. After 24 hours, the cells were removed and fixed as in the first experiment. Then, 9 images per well were collected of the Hoechst staining using a 10× objective.
The low magnification images taken of Hoechst were run through the automated image analysis method described in the first experiment. Plots of the average intensity and area were made of each compound. […] The scatter plots of each compound are visually distinct. […] Furthermore, the number of cells per well was very different (data not shown).

MDCK cells = experiment: Effects of Taxol on MDCK cells, Hoechst morphologies manually counted; conditions: 4.5 hours, 10 μM-1pM, FIG. 10
Method: In a second experiment, the effects of Taxol on MDCK cells and the different types of morphological effects were observed. A plurality of MDCK cells grown in 96 well plates were treated with Taxol for 4.5 hours at different concentrations (10 μM−1pM). They were then fixed, labeled with Hoechst, and imaged.
This experiment used a labeling protocol comprising: MEOH fix at −20°, Wash in PBS, Block in PBS/BSA/Serum/Triton-X 100, Incubate with 5 μg/ml Hoechst 10 minutes, and wash.
Cells were inspected for different morphologies and manually counted at each different drug concentration in one well. […] The next step is to test the automated Hoechst analysis of the first experiment with multiple drugs.

HeLa cells [2] = experiment: High magnification Hoechst and phalloidin images of HeLa cells in the presence of drugs; conditions: 10 ug/mL, 24 hours, 40x objective, vs DMSO control, FIG. 12
Method: A fourth experiment was performed to obtain high magnification images of two markers in the presence of drugs. In this experiment, HeLa cells were treated with 80 generic compounds with known mechanism of action. The quantitative methods described in the first experiment were applied to the Hoechst images.
Approximately 5,000 HeLa cells per well were plated in a Costar black walled 96 well tissue culture-treated plate and left to recover in the incubator for 24 hours. After this time, 10 ug/mL of each compound from the Killer Plate from Microsource Discovery Systems (Gaylordsville, Conn.) was added to different wells at a 1:100 addition in DMSO. The cells were incubated in the presence of drug for 24 more hours. After 24 hours, the cells were removed and fixed as in the first experiment. In addition to being labeled with Hoechst 33342 (against chromatin), cells were also labeled with 1 unit of rhodamine-conjugated phalloidin (against actin) for 30 minutes.
The 96 well plate was imaged twice. Once, 9 images per well were collected of the Hoechst staining using a 10× objective. After this, one image per well of both the phalloidin and Hoechst staining was collected using a 40× objective.
The resulting high magnification images were analyzed qualitatively and distinct pattern differences were detected in both the Hoechst and phalloidin images. […] The top row is the Hoechst staining, and the bottom row is the phalloidin staining from the same well. The columns show the images from wells treated with just DMSO (control), cytochalasin D, and Colchicine. Notice that the morphology of each marker is different in the presence of each drug.

NC(=O)NO [Hydroxyurea, hydroxyurea]
brightness (average Hoechst intensity) compared to control (HeLa cells [1]): brighter
cell (Hoechst object) size/area compared to control (HeLa cells [1]): larger

CC(=O)O[C@H]1C(=O)[C@@]2(C)[C@H]([C@H](OC(=O)c3ccccc3)[C@]3(O)C[C@H](OC(=O)[C@H](O)[C@@H](NC(=O)c4ccccc4)c4ccccc4)C(C)=C1C3(C)C)[C@]1(OC(C)=O)CO[C@@H]1C[C@@H]2O [Taxol, paclitaxel]
number of normal mitotic cells as a function of drug concentration (MDCK cells): fewer number of normal mitotic cells were detected
proportion of cells undergoing apoptosis as a function of drug concentration (MDCK cells): larger proportion of cells underwent apoptosis

COc1cc2c(c(OC)c1OC)-c1ccc(OC)c(=O)cc1[C@@H](NC(C)=O)CC2 [colchicine]
actin cytoskeleton morphology in the phalloidin image (HeLa cells [2]): there is an effect on the actin cytoskeleton

C=C1[C@@H](C)[C@H]2[C@H](Cc3ccccc3)NC(=O)[C@]23[C@H](OC(C)=O)/C=C/[C@@](C)(O)C(=O)[C@@H](C)C/C=C/[C@H]3[C@@H]1O [cytochalasin D]
cell (Hoechst object) size/area compared to control (HeLa cells [1]): smaller than control
actin cytoskeleton morphology in the phalloidin image (HeLa cells [2]): expected effect in the phalloidin image
morphology of the chromatin in the Hoechst image (HeLa cells [2]): there is an effect in the morphology of the chromatin
